{"source": "patent EP1497263B1", "about": "“ACYL-3-CARBOXYPHENYLUREA DERIVATIVES, METHOD FOR PRODUCTION AND USE THEREOF” (Sanofi-Aventis Deutschland GmbH, priority 2002, dated 2003)", "tested_on": "Humane Glykogenphosphorylase a", "experiment": "Glycogen phosphorylase a activity test (reverse direction, release of inorganic phosphate)", "type": "biochemical, human", "conditions": "10 µM test substance; 40 min at room temperature; duplicate determinations", "from_the_text": "Glykogenphosphorylase a Aktivitätstest\nDer Effekt von Verbindungen auf die Aktivität der aktiven Form der Glykogenphosphorylase (GPa) wurde in der umgekehrten Richtung, durch Verfolgen der Glykogensynthese aus Glukose-1-Phosphat an Hand der Bestimmung der Freisetzung von anorganischem Phosphat, gemessen. Alle Reaktionen wurden als Doppelbestimmungen in Mikrotiterplatten mit 96-Vertiefungen (Half Area Plates, Costar Nr. 3696) durchgeführt, wobei die Änderung der Absorption auf Grund der Bildung des Reaktionsprodukts bei der weiter unten spezifizierten Wellenlänge in einem Multiskan Ascent Elisa Reader (Lab Systems, Finnland) gemessen wurde. Um die GPa Enzymaktivität in der umgekehrten Richtung zu messen, wurde die Umwandlung von Glukose-1-Phosphat in Glykogen und anorganisches Phosphat nach der allgemeinen Methode von Engers et al. (Engers HD, Shechosky S, Madsen NB, Can J Biochem 1970 Jul;48(7):746-754) mit folgenden Modifikationen gemessen: Humane Glykogenphosphorylase a (zum Beispiel mit 0,76 mg Protein / ml (Aventis Pharma Deutschland GmbH), gelöst in Pufferlösung E (25 mM β-Glyzerophosphat, pH 7,0, 1 mM EDTA und 1 mM Dithiotreitol) wurde mit Puffer T (50 mM Hepes, pH 7,0, 100 mM KCI, 2,5 mM. EDTA, 2,5 mM MgCl2·6H2O) und Zusatz von 5 mg/ml Glykogen auf eine Konzentration von 10 µg Protein/ml verdünnt. […]"}
{"smiles": "CCOC(=O)c1ccc(NC(=O)NC(=O)c2c(F)cccc2F)cc1", "note": "[Vergleichsbeispiel A]", "values": [{"measurement": "% Inhibition bei 10 µM", "value": 3, "unit": "%"}]}
{"smiles": "Cc1ccccc1C(=O)NC(=O)Nc1cc(C(=O)O)ccc1Cl", "note": "[compound 5]", "values": [{"measurement": "% Inhibition bei 10 µM", "value": 46, "unit": "%"}]}
